How the values were obtained:
Assay in all cases: UV-vis difference titration (type I shift, […] nm)
Type in all cases: binding
TxtE [1] = molecular target: T1, TxtE (Streptomyces scabiei, UniProt C9ZDC6, N293L)
T1 construct: full length, 406 residues, pET-28a, N-terminal His-tag with thrombin site (tag kept), E. coli Rosetta(DE3) pLysS, monomer in solution

TxtE [2] = molecular target: T2, TxtE (Streptomyces scabiei, UniProt C9ZDC6)
T2 construct: full length, 406 residues, pET-28a, N-terminal His-tag with thrombin site (tag kept), E. coli Rosetta(DE3) pLysS, monomer in solution

TxtE [3] = molecular target: T3, TxtE (Streptomyces scabiei, UniProt C9ZDC6, Y89F)
T3 construct: full length, 406 residues, pET-28a, N-terminal His-tag with thrombin site (tag kept), E. coli Rosetta(DE3) pLysS, monomer in solution
T3 sequence (C9ZDC6 whole entry Y89F): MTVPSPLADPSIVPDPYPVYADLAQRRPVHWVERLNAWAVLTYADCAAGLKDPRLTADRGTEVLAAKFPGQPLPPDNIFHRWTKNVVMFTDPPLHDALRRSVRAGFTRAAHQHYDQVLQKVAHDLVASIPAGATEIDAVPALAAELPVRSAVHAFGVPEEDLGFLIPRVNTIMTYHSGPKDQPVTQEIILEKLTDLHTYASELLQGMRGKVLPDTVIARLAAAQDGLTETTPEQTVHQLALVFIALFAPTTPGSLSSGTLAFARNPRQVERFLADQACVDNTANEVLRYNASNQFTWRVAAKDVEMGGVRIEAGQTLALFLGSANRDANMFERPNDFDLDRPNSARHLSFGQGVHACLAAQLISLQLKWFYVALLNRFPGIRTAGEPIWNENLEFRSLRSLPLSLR

T1 sequence (C9ZDC6 whole entry N293L): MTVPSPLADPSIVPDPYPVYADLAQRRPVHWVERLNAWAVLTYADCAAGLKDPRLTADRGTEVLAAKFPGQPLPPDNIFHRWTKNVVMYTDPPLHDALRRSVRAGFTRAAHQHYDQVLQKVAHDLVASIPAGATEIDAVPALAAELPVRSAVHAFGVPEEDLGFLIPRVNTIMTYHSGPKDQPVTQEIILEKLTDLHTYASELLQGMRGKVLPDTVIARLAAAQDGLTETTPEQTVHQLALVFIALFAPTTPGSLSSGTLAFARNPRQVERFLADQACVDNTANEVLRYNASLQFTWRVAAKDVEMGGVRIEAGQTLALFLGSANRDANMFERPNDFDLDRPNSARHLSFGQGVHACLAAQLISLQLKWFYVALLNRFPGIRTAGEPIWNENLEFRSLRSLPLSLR
T2 sequence (C9ZDC6 entry or part of it): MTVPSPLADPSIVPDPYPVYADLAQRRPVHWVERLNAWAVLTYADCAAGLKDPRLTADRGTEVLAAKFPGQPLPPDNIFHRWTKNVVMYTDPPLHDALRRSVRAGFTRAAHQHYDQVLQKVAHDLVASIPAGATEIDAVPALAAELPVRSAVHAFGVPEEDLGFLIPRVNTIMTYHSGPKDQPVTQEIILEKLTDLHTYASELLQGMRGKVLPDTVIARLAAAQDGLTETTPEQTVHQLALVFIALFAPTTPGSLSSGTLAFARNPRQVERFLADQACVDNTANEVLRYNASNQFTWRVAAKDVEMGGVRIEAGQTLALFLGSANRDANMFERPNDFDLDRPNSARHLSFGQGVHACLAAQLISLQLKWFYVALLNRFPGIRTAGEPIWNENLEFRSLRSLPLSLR

## N[C@@H](Cc1c[nH]c2ccccc12)C(=O)O [L-tryptophan]
TxtE [1]
  Kd: 1700 ± 280 µM
TxtE [2]
  Kd: 43.6 ± 2.26 µM
TxtE [3]
  Kd: 121 ± 4.3 µM

Reference: article PMC3840065, “Structural Insights into the Mechanism for Recognizing Substrate of the Cytochrome P450 Enzyme TxtE” (PLoS ONE, 2013)
